Assay results from patent publication EP0733365A2, “Use of benzoquinolin-3-ones for the treatment and prevention of prostatic cancer” (priority 1995, dated 1996).
Several values for one entry are separate records, joined by “and”; a condition that tells them apart may be missing. Equal entries are not always repeated.

The compounds below were run against T1, Type I 5α-reductase (Homo sapiens, UniProt P18405) (assay: Human Type I steroid 5α-reductase homogenate assay (conversion of [3H]-testosterone to [3H]-DHT and other 5α-reduced metabolites)). Conditions: 0.3 µM concentration of compound, compared to control reaction mixtures.
T1 construct: Scalp punch biopsies from graft recipient sites were obtained; from tissue; host or cells: human scalp skin (punch biopsies from hair transplant procedures); 100,000 x g pellet of the homogenate
T1 sequence (P18405 1-259): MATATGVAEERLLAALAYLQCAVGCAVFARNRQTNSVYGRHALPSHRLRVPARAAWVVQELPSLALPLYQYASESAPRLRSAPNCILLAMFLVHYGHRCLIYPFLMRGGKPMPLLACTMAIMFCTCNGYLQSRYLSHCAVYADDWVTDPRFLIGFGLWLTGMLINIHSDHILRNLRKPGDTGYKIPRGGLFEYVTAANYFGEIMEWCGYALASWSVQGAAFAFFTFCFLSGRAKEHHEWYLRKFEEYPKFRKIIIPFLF
Assay type: biochemical
Procedure: Methodology of Human Type I Steroid 5α-Reductase Assays
Preparation of Type I 5α-Reductase from Human Scalp: Scalp punch biopsies from graft recipient sites were obtained, following the proper Informed Consent and Institutional Review Board guidelines, from human hair transplant procedures immediately after surgery and were frozen on dry ice and stored at -80°C. Approximately 60-75 punches from one surgical procedure were used to generate an enzyme preparation. The subcutaneous tissue was cut away and discarded. The skin was frozen with liquid nitrogen and pulverized to powder. The powder was homogenized in 30 mL of ice-cold buffer (20 mM Tris-HCl, pH 7.5) using a Brinkmann Polytron (Westbury, NY) with a PTA 10-S probe and a setting of 7. The homogenization procedure consisted of four 15 second pulses. Connective tissue was cleared from the probe with forceps between pulses. The homogenate was then filtered through cheese cloth and the filtrate centrifuged at 100,000 x g for one hour in a Beckman L8-60M ultracentrifuge. The pellet was resuspended by homogenization with a Dounce homogenizer using the same buffer solution. An aliquot was taken for protein determination by the Lowry method, Lowry, et al., Protein Measurement with the Folin Phenol Reagent, J. Biol. Chem., 193, 265-75 (1951). Aliquots of the enzyme preparation were stored at -80° until use. Human 5α-Reductase Homogenate Assay: This enzyme assay is based on the conversion of [^3H]-testosterone to [^3H]-5α -dihydrotestosterone (DHT) and other 5α-reduced metabolites. […] In a total volume of 1.0 mL, the Type I assay contained 2.6 µCi [^3H]-testosterone (50 nM), 500 µM of reduced nicotine adenine dinucleotide phosphate, 100 mM Tris-HCl, pH 7.5, (in Type II assays, 40 mM sodium acetate at pH 5.5 is used instead of Tris-HCl) and test compounds as indicated. Test compounds were added in 20 µL of dimethylsulfoxide (20 µL of dimethylsulfoxide was added to blanks and controls). The reaction was initiated by the addition of 0.5 mg of Type I 5α-reductase. The reaction mixture was incubated at 25° for 180 min, and terminated by the addition of 1 mL ice-cold stopping solution. The stopping solution contained 40 µM each of non-radioactive testosterone, DHT, androstenedione, androstanedione, androsterone, androstan-3β17β- diol, and androstan-3α,17β-diol. The samples were prepared for high performance liquid chromatography by solid phase extraction. Disposable solid matrix extraction columns (C-18 reversed phase, 6 mL, 500 mg; Bond Elut™ from Analytichem International; Harbor City, CA) were conditioned by washing with 5 mL of methanol followed by 5 mL of deionized water. The reaction mixtures were then applied to the columns. The columns were subsequently washed with 5 mL of acetone:water (1:4), followed by 0.3 mL of methanol. The samples were then eluted with 3 mL of methanol and collected in 20 mL scintillation vials. Three mL of water was then added to each scintillation vial. The solutions were then transferred to tubes and centrifuged for 30 min at 1000 x g to remove any particulate material before chromatography. The [^3H]-testosterone substrate and its metabolites were separated by chromatography using a C-18 reversed phase column (Beckman Ultrasphere 5µm spherical 80A pore, part no. 235329, 4.6 mm i.d. x […]) with an isocratic mobile phase (46 water: 46 methanol: 8 tetrahydrofuran by volume). The column temperature was maintained at 35° and the flow rate was 1.5 mL/min. A 400 µL aliquot was injected onto the column and radioactivity was determined using a Beckman 171 in-line flow radioisotope detector in conjunction with Rainin Dynamax™ software and a Macintosh computer. The flow rate of the Atomflow™ scintillation fluid was 4.5 mL / min.

Compound | percent inhibition of Type I 5AR
Cc1cccc2sc(Sc3ccc4c(c3)CC[C@H]3N(C)C(=O)CC[C@]43C)nc12 [Example 159, (+)-(4aR)-(10bR)-4-methyl-8-(4-methyl-2-benzothiazolylthio)-10b-methyl-1,2,3,4,4a,5,6,10b-octahydrobenzo[f]quinolin-3-one] | 87, 87%
CN1C(=O)CC[C@]2(C)c3ccc(Sc4nc5c(ccc6ccccc65)s4)cc3CC[C@@H]12 [Example 163, (+)-(4aR)-(10bR)-4-methyl-8-(2-naphtho〈1,2-d〉-thiazolylthio)-10b-methyl-1,2,3,4,4a 5,6,10b-octahydrobenzo[f]-quinolin-3-one] | 80%
C[C@]12CCC(=O)N[C@@H]1CCc1cc(-c3cnc4ccccc4c3)ccc12 [Example 196, (+)-(4aR)-(10bR)-8-(3-quinolinyl)-10b-methyl-1,2,3,4,4a,-5,6,10b-octahydrobenzo[f]quinolin-3-one] | 11%
CN1C(=O)CC[C@]2(C)c3ccc(-c4ccc(-c5ccc(NC(=O)C(C)(C)C)s5)cc4)cc3CC[C@@H]12 [Example 222, (+)-(4aR)-(10bR)-4-methyl-8-(4-[(2-t-butylcarbonylamino]-5-thienyl]phenyl)-10b-methyl-1,2,3,4,4a,5,6,10b-octahydrobenzo[f]quinolin-3-one] | 86%
(+)-(4aR)-(10bR)-4-methyl-8-(2-[6-benzyloxy]naphthyl)-10b-methyl-1,2,3,4,4a,5,6,10b-octahydrobenzo[f]quinolin-3-one [Example 62] | 45%
(+)-(4aR)-(10bR)-4-methyl-8-(2aR,4S-1-benzoyl-4-amino-2,2a,3,4-tetrahydrobenz[cd]-1H-indol-7-yl)-10b-methyl-1,2,3,4,4a,5,6,10b-octahydrobenzo[f]quinolin-3-one [Example 226] | 16%
(+)-(4aR)-(10bR)-4-methyl-8-(2aR,4S-1-benzoyl-4-dipropylamino-2,2a,3,4-tetrahydrobenz[cd]-1H-indol-7-yl)-10b-methyl-1,2,3,4,4a,5,6,10b-octahydrobenzo[f]quinolin-3-one [Example 225] | 47%
(+)-(4aR)-(10bR)-4-methyl-8-(3-[1-benzyl-4-piperidinylcarboxamidolphenyl)-10b-methyl-1,2,3,4,4a,5,6,10b-octahydrobenzo[f]quinolin-3-one [Example 209] | 24%
(+)-(4aR)-(10bR)-4-methyl-8-(4-fluoro-3-trifluoromethylphenyl)-10b-methyl-1,2,3,4,4a,5,6,10b-octahydrobenzo[f]quinolin-3-one [Example 46] | 3%
(+)-(4aR)-(10bR)-4-methyl-8-benzyloxycarbonyl-10b-methyl-1,2,3,4,4a,5,6,10b-octahydrobenzo[f]quinolin-3-one [Example 144] | 90%

Same assay, conditions: 0.3 µM concentration of compound, compared to control reaction mixtures; 0.3 µM

Compound | percent inhibition of Type I 5AR
CN1C(=O)CC[C@]2(C)c3ccc(-c4ccc(Cl)cc4)cc3CC[C@@H]12 [Example 50, (+)-(4aR)-(10bR)-4-methyl-8-(4-chlorophenyl)-10b-methyl-1,2,3,4,4a,5,6,10b-octahydrobenzo[f]quinolin-3-one] | 94%
CN1C(=O)CC[C@]2(C)c3ccc(-c4cccc5ccccc45)cc3CC[C@@H]12 [Example 53, (+)-(4aR)-(10bR)-4-methyl-8-(1-naphthyl)-10b-methyl-1,2,3,4,4a,5,6,10b-octahydrobenzo[f]quinolin-3-one] | 100% and 66%
CN1C(=O)CC[C@]2(C)c3ccc(Sc4nc5c(Cl)cccc5s4)cc3CC[C@@H]12 [Example 164, (+)-(4aR)-(10bR)-4-methyl-8-(4-chloro-2-benzothiazolylthio)-10b-methyl-1,2,3,4,4a,5,6,10b-octahydrobenzo[f]quinolin-3-one] | 87%
CN1C(=O)CC[C@]2(C)c3ccc(-c4cc(F)c(F)c(F)c4)cc3CC[C@@H]12 [Example 206, (+)-(4aR)-(10bR)-4-methyl-8-(3,4,5-trifluorophenyl)-10b-methyl-1,2,3,4,4a,5,6,10b-octahydrobenzo[f]quinolin-3-one] | 100%
CN1C(=O)CC[C@]2(C)c3ccc(CCc4ccccc4)cc3CC[C@@H]12 [Example 280, (4aR)-(10bR)-4,10b-dimethyl-8-(2-phenylethyl)-1,2,3,4,4a,5,6,10b-octahydrobenzo[f]quinolin-3-one] | 100%
CN1C(=O)CC[C@]2(C)c3ccc(C=Cc4ccccc4)cc3CC[C@@H]12 [Example 285, (4aR)-(10bR)-4,10b-dimethyl-8-(2-phenylethenyl)-1,2,3,4,4a,5,6,10b-octahydrobenzo[f]quinolin-3-one] | 93%

Same assay, conditions: 0.3 µM concentration of compound, compared to control reaction mixtures; read-out: percent inhibition of Type I 5AR

Compound | inhibition at 0.3 µM [%]
C[C@]12CCC(=O)N[C@@H]1CCc1cc(Sc3ccccc3Cl)ccc12 (single isomer, unassigned) [Example 7] | 49
C[C@]12CCC(=O)N[C@@H]1CCc1cc(-c3cnc4ccccc4c3)ccc12 (single isomer, unassigned) [Example 45] | 11
CN1C(=O)CC[C@]2(C)c3ccc(-c4ccc5c(c4)CCC5O)cc3CC[C@@H]12 (single isomer, unassigned; (+)) [Example 245] | 54
CN1C(=O)CC[C@]2(C)c3ccc(-c4ccc(NS(C)(=O)=O)cc4)cc3CC[C@@H]12 [Example 123, (+)-(4aR)-(10bR)-4-methyl-8-(4-methylsulfonamidophenyl)-10b-methyl-1,2,3,4,4a,5,6,10b-octahydrobenzo[f]quinolin-3-one] | 10
C[C@]12C=CC(=O)N[C@@H]1CCc1cc(-c3cc4ccccc4cn3)ccc12 [Example 142, (+)-(4aR)-(10bR)-8-(3-isoquinolinyl)-10b-methyl-3,4,4a,5,6,10b-hexahydrobenzo[f]quinolin-3-one] | 22
Cc1cccc2sc(Sc3ccc4c(c3)CC[C@H]3N(C)C(=O)CC[C@]43C)nc12 [Example 159, (+)-(4aR)-(10bR)-4-methyl-8-(4-methyl-2-benzothiazolylthio)-10b-methyl-1,2,3,4,4a,5,6,10b-octahydrobenzo[f]quinolin-3-one] | 87
CN1C(=O)CC[C@]2(C)c3ccc(/C=C/c4cncc5ccccc45)cc3CC[C@@H]12 [Example 281, (4aR)-(10bR)-4,10b-dimethyl-8-(2-[4-isoquinolinyl]ethenyl)-1,2,3,4,4a,5,6,10b-octahydrobenzo[f]quinolin-3-one] | 75
CN1C(=O)CC[C@]2(C)c3ccc(/C=C/c4cnc5ccccc5c4)cc3CC[C@@H]12 [Example 282, (4aR)-(10bR)-4,10b-dimethyl-8-(2-[3-quinolinyl]ethenyl)-1,2,3,4,4a,5,6,10b-octahydrobenzo[f]quinolin-3-one] | 75
CN1C(=O)CC[C@]2(C)c3ccc(/C=C/c4ccc5ccccc5n4)cc3CC[C@@H]12 [Example 283, (4aR)-(10bR)-4,10b-dimethyl-8-(2-[2-quinolinyl]ethenyl)-1,2,3,4,4a,5,6,10b-octahydrobenzo[f]quinolin-3-one] | 87

Same assay, conditions: read-out: percent inhibition of Type I 5AR, 0.3 µM concentration of compound, compared to control reaction mixtures

Compound | inhibition at 0.3 µM [%]
CN1C(=O)CC[C@]2(C)c3ccc(C=Cc4ccccc4)cc3CC[C@@H]12 [Example 279, (4aR)-(10bR)-4,10b-dimethyl-8-(2-phenylethenyl)-1,2,3,4,4a,5,6,10b-octahydrobenzo[f]quinolin-3-one] | 85
